From ChEMBL document CHEMBL5260810, “Inhibition of bromodomain-containing protein 9 for the prevention of epigenetically-defined drug resistance” (Bioorg Med Chem Lett, 2017)

Columns and labels:
Type in all cases: functional, cell-based
[1] = test system: COR-L88; assay: Cytotoxicity against human COR-L88 cells measured after 8 days; conditions: COR-L88, 192 h
[2] = test system: KYSE-520 cell line; assay: Cytotoxicity against human KYSE520 cells measured after 8 days; conditions: KYSE-520, 192 h
[3] = test system: SK-HEP1; assay: Cytotoxicity against human SK-HEP1 cells measured after 8 days; conditions: SK-HEP1, 192 h
[4] = test system: SUP-B15; assay: Cytotoxicity against human SUP-B15 cells measured after 8 days; conditions: SUP-B15, 192 h
[5] = Cytotoxicity against human NCI-H2369 cells measured after 8 days; conditions: NCI-H2369, 192 h
[6] = test system: JJN-3; assay: Cytotoxicity against human JJN-3 cells measured after 8 days; conditions: JJN-3, 192 h
[7] = Cytotoxicity against human HCC1010 cells measured after 8 days; conditions: HCC1010, 192 h
[8] = Cytotoxicity against human SCLC-22H cells measured after 8 days; conditions: 192 h
[9] = test system: DMS-273; assay: Cytotoxicity against human DMS-273 cells measured after 8 days; conditions: DMS-273, 192 h
[10] = test system: 786-0; assay: Cytotoxicity against human 786-0 cells measured after 8 days; conditions: 786-0, 192 h
[11] = test system: MDA-MB-435; assay: Cytotoxicity against human MDA-MB-435 cells measured after 8 days; conditions: MDA-MB-435, 192 h
[12] = test system: MES-SA; assay: Cytotoxicity against human MES-SA cells measured after 8 days; conditions: 192 h
[13] = Cytotoxicity against human HSC-5 cells measured after 8 days; conditions: HSC-5, 192 h
[14] = test system: 769-P; assay: Cytotoxicity against human 769-P cells measured after 8 days; conditions: 192 h
[15] = Cytotoxicity against human UM-RC-7 cells measured after 8 days; conditions: UM-RC-7, 192 h
[16] = test system: H322; assay: Cytotoxicity against human H322 cells measured after 8 days; conditions: NCI-H322, 192 h
[17] = Cytotoxicity against human OVISE cells measured after 8 days; conditions: 192 h
[18] = test system: SCLC-21H; assay: Cytotoxicity against human SCLC-21H cells measured after 8 days; conditions: 192 h
[19] = test system: SK-N-BE(2)-M17; assay: Cytotoxicity against human SK-N-BE(2)-M17 cells measured after 8 days; conditions: SK-N-BE(2)-M17, 192 h
[20] = test system: Hs746T; assay: Cytotoxicity against human Hs746T cells measured after 8 days; conditions: 192 h
[21] = test system: NUGC-3; assay: Cytotoxicity against human NUGC-3 cells measured after 8 days; conditions: NUGC-3, 192 h
[22] = Cytotoxicity against human ECC-1 cells measured after 8 days; conditions: ECC-1, 192 h
[23] = Cytotoxicity against human GR-M cells measured after 8 days; conditions: 192 h
[24] = Cytotoxicity against mouse 66cl-4 cells measured after 8 days; conditions: 66cl-4, 192 h
[25] = test system: HEC-1B cell line; assay: Cytotoxicity against human HEC-1B cell line measured after 8 days; conditions: 192 h
[26] = Cytotoxicity against human CoCM-1 cells measured after 8 days; conditions: CoCM-1, 192 h
[27] = test system: OVCAR-3; assay: Cytotoxicity against human OVCAR-3 cells measured after 8 days; conditions: OVCAR-3, 192 h
[28] = Cytotoxicity against human KLM-1 cells measured after 8 days; conditions: KLM1, 192 h
[29] = Cytotoxicity against human COR-L26 cells measured after 8 days; conditions: COR-L26, 192 h
[30] = test system: RPMI-7951; assay: Cytotoxicity against human RPMI-7951 cells measured after 8 days; conditions: RPMI-7951, 192 h
[31] = test system: NCI-H446; assay: Cytotoxicity against human NCI-H446 cells measured after 8 days; conditions: NCI-H446, 192 h
[32] = test system: IGR-1; assay: Cytotoxicity against human IGR-1 cells measured after 8 days; conditions: IGR-1, 192 h
[33] = test system: RVH-421; assay: Cytotoxicity against human RVH-421 cells measured after 8 days; conditions: RVH-421, 192 h
[34] = Cytotoxicity against human HCC1159 cells measured after 8 days; conditions: HCC1159, 192 h
[35] = test system: 23132-87; assay: Cytotoxicity against human 23132-87 cells measured after 8 days; conditions: 23132-87, 192 h
[36] = Cytotoxicity against human HEC-50B cells measured after 8 days; conditions: 192 h
[37] = test system: EL4; assay: Cytotoxicity against mouse EL4 cells measured after 8 days; conditions: EL4, 192 h
[38] = test system: SK-MEL-30; assay: Cytotoxicity against human SK-MEL-30 cells measured after 8 days; conditions: SK-MEL-30, 192 h
[39] = test system: CAKI-1; assay: Cytotoxicity against human CAKI-1 cells measured after 8 days; conditions: CAKI-1, 192 h
[40] = Cytotoxicity against human 4498-16820 Mel-BR1 X1 cells measured after 8 days; conditions: 4498-16820 Mel-BR1 X1, 192 h
[41] = test system: U-266; assay: Cytotoxicity against human U266B1 cells measured after 8 days; conditions: U-266, 192 h
[42] = Cytotoxicity against human HCC1263 cells measured after 8 days; conditions: HCC1263, 192 h
[43] = Cytotoxicity against human COV318 cells measured after 8 days; conditions: COV318, 192 h
[44] = Cytotoxicity against human TCC-Pan2 cells measured after 8 days; conditions: TCC-Pan2, 192 h
[45] = Cytotoxicity against human NCE-G 124 cells measured after 8 days; conditions: NCE-G 124, 192 h
[46] = Cytotoxicity against human NCE-G 96 cells measured after 8 days; conditions: NCE-G 96, 192 h
[47] = test system: OV-90; assay: Cytotoxicity against human OV-90 cells measured after 8 days; conditions: OV-90, 192 h
[48] = test system: COLO 201; assay: Cytotoxicity against human COLO201 cells measured after 8 days; conditions: COLO 201, 192 h
[49] = Cytotoxicity against human SNU-216 cells measured after 8 days; conditions: SNU-216, 192 h
[50] = test system: Hs 683; assay: Cytotoxicity against human Hs 683 cells measured after 8 days; conditions: Hs 683, 192 h
[51] = Cytotoxicity against human 4498-16820 Mel-BR1 cells measured after 8 days; conditions: 4498-16820 Mel-BR1, 192 h
[52] = test system: KALS-1; assay: Cytotoxicity against human KALS-1 cells measured after 8 days; conditions: KALS-1, 192 h
[53] = test system: Panc02; assay: Cytotoxicity against mouse Panc02 cells measured after 8 days; conditions: Panc02, 192 h
[54] = test system: KM12; assay: Cytotoxicity against human KM12 cells measured after 8 days; conditions: KM12, 192 h
[55] = Cytotoxicity against human KHM-1B cells measured after 8 days; conditions: 192 h
[56] = test system: SU-DHL10; assay: Cytotoxicity against human SU-DHL-10 cells measured after 8 days; conditions: SU-DHL10, 192 h
[57] = test system: EJM; assay: Cytotoxicity against human EJM cells measured after 8 days; conditions: 192 h
[58] = Cytotoxicity against human HCC2885 cells measured after 8 days; conditions: HCC2885, 192 h
[59] = Cytotoxicity against human HCC364 cells measured after 8 days; conditions: HCC364, 192 h
[60] = test system: MM1.S; assay: Cytotoxicity against human MM1.S cells measured after 8 days; conditions: 192 h

Measured: IC50

C/C=C/Cn1cc(-c2ccc(C(=O)N3CCOCC3)cc2)c2cc[nH]c2c1=O
12.2 µM: [6]
20 µM: [1] | [2] | [3] | [4] | [5] | [7] | [8] | [9] | [10] | [11] | [12] | [13] | [14] | [15] | [16] | [17] | [18] | [19] | [20] | [21] | [22] | [23] | [24] | [26] | [27] | [28] | [29] | [30] | [31] | [32] | [33] | [34] | [35] | [36] | [37] | [38] | [39] | [40] | [41] | [42] | [43] | [44] | [45] | [46] | [47] | [48] | [49] | [50] | [51] | [52] | [53] | [54] | [55] | [56] | [57] | [58] | [59] | [60]
10.6 µM: [25]
